Laboratory results published in patent publication US20190083498A1, “THERAPIES FOR HEMATOLOGIC MALIGNANCIES” (GILEAD CALISTOGA LLC, priority 2008, published 2019).

How the values were obtained:
[1] = tested on: LB cells; assay: Subcutaneous human MM xenograft model; format: in vivo
Experimental: CB17 SCID mice (48-54 days old) were purchased from Charles River Laboratories (Wilmington, Mass.). All animal studies were conducted according to protocols approved by the Animal Ethics Committee of the Dana-Farber Cancer Institute. Mice were inoculated subcutaneously in the right flank with 3×10^6 LB cells in 100 μL RPMI-1640. When tumors were palpable, mice were assigned into the treatment groups receiving 10 mg/kg or 30 mg/kg gavages twice daily; and 7 mice in the control group receiving vehicle alone. Caliper measurements of the longest perpendicular tumor diameters were performed every alternate day to estimate the tumor volume using the following formula representing the 3D volume of an ellipse: 4/3× (width/2)2× (length/2). Animals were sacrificed when tumors reached 2 cm or the mice appeared moribund. Survival was evaluated from the first day of treatment until death. […] The images were captured with a canon IXY digital 700 camera. Ex vivo analysis of tumor images was captured with a LEICA DM IL microscope and LEICA DFC300 FX camera at 40 u/0.60 (Leica, Heidelberg, Germany).
Mean tumor volume was calculated as in Materials and Methods, FIG. 36A. Error bars represent SD (±).
Tumors harvested from Compound II (30 mg/kg) treated mouse (right panel) and control mouse (left panel) were subjected to immuno-histochemistric analysis using CD31 and P-AKT Abs. CD31 and P-AKT positive cells are dark brown, FIG. 36D.
Survival was evaluated from the first day of treatment until sacrifice using Kaplan-Meier curves, FIG. 36C.
Tumor tissues were harvested from mice treated with control vehicle or Compound II (30 mg/kg). Protein levels of phosphorylated of PDK-1 and AKT (Ser473) were determined by western blotting of cell lysates, FIG. 36E. Actin was used as a loading control.

[2] = tested on: INA-6 cells; assay: SCID-hu model, INA-6 cells in human bone chip, serum shuIL-6R ELISA; format: in vivo, SCID mice; conditions: 10 or 30 mg/kg daily for 4 weeks
Experimental: Human fetal bone grafts were implanted into CB17 SCID-mice (SCID-hu). Four weeks following bone implantation, 2.5×10^6 INA-6 cells were injected directly into the human BM cavity in the graft in a final volume of 100 μl of RPMI-1640 medium. An increase in the levels of soluble human IL-6 receptor (shulL-6R) from INA-6 cells was used as an indicator of MM cell growth and burden of disease in SCID-hu mice. Mice developed measurable serum shulL-6R approximately 4 weeks following INA-6 cell injection, and then received either 10 or 30 mg/kg drug or vehicle alone daily for […]. Blood samples were collected and assessed for shulL-6R levels using an enzyme-linked immunosorbent assay (ELISA, R&D Systems. Minneapolis Minn.).
Growth of INA-6 cells engrafted in human bone chips in SCID mice was monitored by serial serum measurements of shulL-6R. […] Error bars indicate SD (±).
In order to examine the activity of compound II on MM cell growth in the context of the human BM microenvironment in vivo, a SCID-hu model was used in which IL-6 dependent INA-6 cells are directly injected into a human bone chip implanted subcutaneously in SCID-mice. This model recapitulates the human BM microenvironment with human IL-6/BMSC-dependent growth of INA-6 human MM cells. These SCID-hu mice were treated with compound II or vehicle alone daily for 4 weeks, and serum shulL-6R monitored as a marker tumor burden. […]

[3] = molecular target: class II PI3K CIIbeta (Homo sapiens, UniProt O00750); assay: IC50 profile across kinases, InvitroGen Adapta assay; format: biochemical
[4] = molecular target: Class III PI3K hVPS34 (Homo sapiens, UniProt Q8NEB9); conditions: read-out: Class III PI3K, IC50 hVPS34; InvitroGen Adapta assay
[5] = tested on: CLL cells with or without StromaNKTert; assay: CLL cell viability/apoptosis in stromal co-culture, Annexin V/PI FACS; format: cell-based, human; conditions: 100 nM alone; two patients; 24 hours
Experimental: CLL cell and stromal cell co-cultures: CLL cells were cultured under standardized conditions on stromal cell lines or primary NLC. Briefly, stromal cells were seeded one day prior to each experiment onto 24-well plates (Corning Life Sciences) at a concentration of 3×10^5 cells/mL/well and incubated at 37° C. in 5% CO2. Stromal cell confluence was confirmed by phase contrast microscopy, and CLL cells were then added onto the stromal cell layer at a concentration of 3×10^6 cells/mL. Cultures were then treated with compounds for the specified time periods. CLL cells were removed for analysis by gentle pipetting with media, and were then washed in PBS prior to analysis. A 24-hour co-culture time point was used unless otherwise indicated.
Cell viability testing and reagents: CLL cell viability was determined by analysis of Annexin V-FITC (BD Biosciences, San Diego, Calif.) and Propidium Iodine (PI) (Sigma) by FACS.
To determine whether PI3K inhibition increased the sensitivity of stroma-exposed CLL cells by increasing priming, PB-derived CLL cells cultured with or without StromaNKTert cells for 24 hours and were examined using Annexin-PI and BH3 profiling. […] Stromal co-culture of four CLL patient samples led to protection from apoptosis in untreated cells.

[6] = tested on: INA-6 and LB cells; assay: Growth of MM cells treated with 3-MA; format: cell-based, human; conditions: up to 100 μM; 24 h
Experimental: P110 δ positive LB cells (♦) were treated with 3-MA (0-100 μM) for 24 h. Data represent means (±SD) of triplicate cultures.

Class III PI3K hVPS34, sequence (Q8NEB9 whole entry): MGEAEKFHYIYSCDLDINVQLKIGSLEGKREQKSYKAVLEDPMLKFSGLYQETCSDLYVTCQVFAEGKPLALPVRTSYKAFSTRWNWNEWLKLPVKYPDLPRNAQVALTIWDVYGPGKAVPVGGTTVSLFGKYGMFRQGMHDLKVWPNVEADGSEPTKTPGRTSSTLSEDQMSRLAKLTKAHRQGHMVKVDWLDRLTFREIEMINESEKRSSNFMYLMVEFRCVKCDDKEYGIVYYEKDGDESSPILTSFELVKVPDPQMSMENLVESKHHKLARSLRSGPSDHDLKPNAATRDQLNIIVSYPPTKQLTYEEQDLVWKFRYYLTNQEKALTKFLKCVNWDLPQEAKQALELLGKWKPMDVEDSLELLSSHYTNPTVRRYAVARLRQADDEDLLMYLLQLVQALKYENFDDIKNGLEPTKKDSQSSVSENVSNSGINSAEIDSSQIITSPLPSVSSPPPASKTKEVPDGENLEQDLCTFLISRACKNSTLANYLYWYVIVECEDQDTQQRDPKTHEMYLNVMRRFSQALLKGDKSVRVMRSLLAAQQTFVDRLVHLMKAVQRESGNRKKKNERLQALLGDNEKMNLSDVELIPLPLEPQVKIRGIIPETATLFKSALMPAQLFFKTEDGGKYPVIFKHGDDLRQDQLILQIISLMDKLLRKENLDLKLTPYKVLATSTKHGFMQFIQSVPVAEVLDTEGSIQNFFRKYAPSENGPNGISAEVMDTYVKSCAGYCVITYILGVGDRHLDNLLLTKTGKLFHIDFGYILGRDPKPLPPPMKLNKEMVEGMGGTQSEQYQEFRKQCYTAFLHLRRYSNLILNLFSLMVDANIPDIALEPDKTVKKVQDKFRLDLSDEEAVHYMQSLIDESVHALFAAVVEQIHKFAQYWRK
class II PI3K CIIbeta, sequence (O00750 whole entry): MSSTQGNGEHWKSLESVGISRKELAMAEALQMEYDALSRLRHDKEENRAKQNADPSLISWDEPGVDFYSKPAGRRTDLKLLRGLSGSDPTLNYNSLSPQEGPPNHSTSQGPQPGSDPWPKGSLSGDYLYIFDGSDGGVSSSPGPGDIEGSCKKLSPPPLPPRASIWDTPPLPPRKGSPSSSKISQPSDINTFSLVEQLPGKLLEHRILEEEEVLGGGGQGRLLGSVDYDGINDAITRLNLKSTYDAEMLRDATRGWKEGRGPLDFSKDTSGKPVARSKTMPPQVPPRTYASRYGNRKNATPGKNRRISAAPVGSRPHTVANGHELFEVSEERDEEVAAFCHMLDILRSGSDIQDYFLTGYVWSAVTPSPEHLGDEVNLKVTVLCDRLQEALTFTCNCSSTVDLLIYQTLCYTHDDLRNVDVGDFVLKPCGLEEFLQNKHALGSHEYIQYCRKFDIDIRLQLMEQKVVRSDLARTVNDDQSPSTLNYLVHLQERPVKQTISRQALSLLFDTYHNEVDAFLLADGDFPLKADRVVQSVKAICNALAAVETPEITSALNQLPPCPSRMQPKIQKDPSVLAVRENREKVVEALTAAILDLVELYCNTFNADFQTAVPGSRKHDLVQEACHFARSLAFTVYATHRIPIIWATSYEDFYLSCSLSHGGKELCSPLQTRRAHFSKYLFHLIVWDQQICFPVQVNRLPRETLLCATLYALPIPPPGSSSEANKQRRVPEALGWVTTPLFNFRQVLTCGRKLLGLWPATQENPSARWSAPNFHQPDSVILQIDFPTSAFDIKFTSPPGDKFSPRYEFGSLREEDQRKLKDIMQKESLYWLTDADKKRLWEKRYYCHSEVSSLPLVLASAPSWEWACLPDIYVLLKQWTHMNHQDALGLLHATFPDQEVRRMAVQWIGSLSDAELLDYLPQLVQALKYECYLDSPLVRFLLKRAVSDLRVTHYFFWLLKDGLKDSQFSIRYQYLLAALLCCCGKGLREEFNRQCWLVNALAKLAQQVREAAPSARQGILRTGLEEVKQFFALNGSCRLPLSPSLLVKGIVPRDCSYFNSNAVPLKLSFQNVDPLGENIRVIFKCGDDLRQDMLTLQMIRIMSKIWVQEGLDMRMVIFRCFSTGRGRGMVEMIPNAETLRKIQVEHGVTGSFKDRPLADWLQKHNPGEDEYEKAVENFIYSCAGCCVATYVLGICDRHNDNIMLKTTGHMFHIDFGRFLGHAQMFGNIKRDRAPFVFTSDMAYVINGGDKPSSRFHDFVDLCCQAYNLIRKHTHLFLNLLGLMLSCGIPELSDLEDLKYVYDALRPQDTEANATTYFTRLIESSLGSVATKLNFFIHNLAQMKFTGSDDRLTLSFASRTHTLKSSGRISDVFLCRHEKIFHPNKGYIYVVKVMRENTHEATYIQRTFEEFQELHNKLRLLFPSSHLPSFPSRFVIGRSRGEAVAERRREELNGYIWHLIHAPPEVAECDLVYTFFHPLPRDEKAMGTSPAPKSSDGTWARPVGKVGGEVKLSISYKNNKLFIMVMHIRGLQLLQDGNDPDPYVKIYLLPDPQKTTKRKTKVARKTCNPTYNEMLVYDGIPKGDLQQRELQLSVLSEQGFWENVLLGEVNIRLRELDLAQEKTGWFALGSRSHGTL

SMILES: CC(Nc1ncnc2[nH]cnc12)c1nc2ccc(F)cc2c(=O)n1-c1ccccc1 (stereo not drawn) [Compound II, 2-(1-(9H-purin-6-ylamino)ethyl)-6-fluoro-3-phenylquinazolin-4(3H)-one]
- MM tumor growth ([1]; 10 mg/kg or 30 mg/kg orally twice a day, n=7): significantly reduced
- CD31 positive cells and microvessel density ([1]; 30 mg/kg): significantly decreased
- p-Akt and p-PDK-1 in tumor ([1]; 30 mg/kg, immunohistochemical and immunoblot analysis): significantly inhibited
- body weight ([1]; mouse, in vivo): did not affect body weight
- tumor growth (serum shuIL-6R) [2]: significantly inhibited tumor growth

SMILES: Cn1c(=O)n(-c2ccc(C(C)(C)C#N)cc2)c2c3cc(-c4cnc5ccccc5c4)ccc3ncc21 [NVP-BEZ-235]
- IC50 [3]: 3 nM
- IC50 [4]: 6 nM

SMILES: CN(C)CC[C@H](CSc1ccccc1)Nc1ccc(S(=O)(=O)NC(=O)c2ccc(N3CCN(Cc4ccccc4-c4ccc(Cl)cc4)CC3)cc2)cc1[N+](=O)[O-] [ABT-737, reference compound]
- CLL cell viability in stromal co-culture, single agent [5]: profound stroma-mediated resistance

SMILES: Cn1cnc(N)c2ncnc1-2 [Compound 3-MA, 3-Methyladenine]
- cytotoxicity in INA-6 and LB cells [6]: No cytotoxicity
